Experimental data reported in patent US20210139484A1, “DIHYDROISOQUINOLINE-2(1H)-CARBOXAMIDE AND RELATED COMPOUNDS AND THEIR USE IN TREATING MEDICAL CONDITIONS” (GOSSAMER BIO SERVICES, INC., priority 2018, published 2021).
pIC50: −log10 of the molar value.

target: T1, human HPK1 protein (Homo sapiens, UniProt Q92918); assay: Human HPK1 protein TR-FRET assay; type: biochemical; settings: 1 mM ATP, Table 19
T1 construct: recombinant human HPK1 protein (a.a. 1-346) was expressed in Sf9 insect cells; GST (N); purchased Signalchem M23-11G; host or cells: Sf9 insect cells (baculovirus)
T1 sequence (Q92918 1-346): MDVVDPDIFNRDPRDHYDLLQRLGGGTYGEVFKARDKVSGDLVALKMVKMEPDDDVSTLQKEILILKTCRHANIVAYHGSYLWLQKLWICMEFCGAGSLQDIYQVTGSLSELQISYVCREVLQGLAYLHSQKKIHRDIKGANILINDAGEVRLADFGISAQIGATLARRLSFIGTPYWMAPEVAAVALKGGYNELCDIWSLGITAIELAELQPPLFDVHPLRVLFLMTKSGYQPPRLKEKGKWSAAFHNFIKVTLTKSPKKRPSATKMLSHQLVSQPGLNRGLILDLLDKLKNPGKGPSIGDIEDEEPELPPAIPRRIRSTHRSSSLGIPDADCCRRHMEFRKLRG
How it was run: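 GST-tagged HPK1 (a.a. 1-346, Sf9-expressed) at 10 nM phosphorylated 100 nM ULight CREBtide with 1 mM ATP in Tris pH 7.5, MgCl2, NP-40, DTT, 1% DMSO, 60 minutes at room temperature. Phospho-Ser133 detected by Eu-antibody TR-FRET (665/615 nm ratio); IC50 from 4-parameter fit against DMSO control.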

| SMILES | pIC50 |
| --- | --- |
| CCN1CCN(Cc2ccc(NC(=O)C3CCc4ccc(Oc5ncnn6cccc56)cc4C3)cc2C(F)(F)F)CC1 (centres unmarked) [compound 13, N-(4-((4-ethylpiperazin-1-yl)methyl)-3-(trifluoromethyl)phenyl)-7-(pyrrolo[2,1-f][1,2,4]triazin-4-yloxy)-1,2,3,4-tetrahydronaphthalene-2-carboxamide] | > 6.30 |
| CCN1CCN(Cc2ccc(NC(=O)N3CC4CCC3c3cc(Oc5ccnc6[nH]ccc56)ccc34)cc2C(F)(F)F)CC1 (centres unmarked) [compound 14, 7-((1H-pyrrolo[2,3-b]pyridin-4-yl)oxy)-N-(4-((4-ethylpiperazin-1-yl)methyl)-3-(trifluoromethyl)phenyl)-1,2,3,4-tetrahydro-1,4-(epiminomethano)naphthalene-10-carboxamide] | 5.30 to 6.30 |
| CCN1CCN(Cc2ccc(NC(=O)C3CCc4ccc(Oc5ccnc6[nH]c(C)cc56)cc4N3)cc2C(F)(F)F)CC1 (centres unmarked) [compound 15, N-(4-((4-ethylpiperazin-1-yl)methyl)-3-(trifluoromethyl)phenyl)-7-((2-methyl-1H-pyrrolo[2,3-b]pyridin-4-yl)oxy)-1,2,3,4-tetrahydroquinoline-2-carboxamide] | > 6.30 |
| CCN1CCN(Cc2ccc(NC(=O)C3CCc4ccc(Oc5ccnc6[nH]c(C)cc56)cc4N3C)cc2C(F)(F)F)CC1 (centres unmarked) [compound 16, N-(4-((4-ethylpiperazin-1-yl)methyl)-3-(trifluoromethyl)phenyl)-1-methyl-7-((2-methyl-1H-pyrrolo[2,3-b]pyridin-4-yl)oxy)-1,2,3,4-tetrahydroquinoline-2-carboxamide] | > 6.30 |

Results, then the molecule that gave them:

| pIC50 | SMILES |
| --- | --- |
| > 6.30 | CCN1CCN(Cc2ccc(NC(=O)N3CC(=O)c4ccc(Oc5ccnc6[nH]c(C)cc56)cc4C3)cc2C(F)(F)F)CC1 [compound 17, N-(4-((4-ethylpiperazin-1-yl)methyl)-3-(trifluoromethyl)phenyl)-7-((2-methyl-1H-pyrrolo[2,3-b]pyridin-4-yl)oxy)-4-oxo-3,4-dihydroisoquinoline-2(1H)-carboxamide] |
| > 6.30 | CCN1CCN(Cc2ccc(NC(=O)N3Cc4cc(Oc5ccnc6[nH]c(C)cc56)ccc4C(O)C3)cc2C(F)(F)F)CC1 (centres unmarked) [compound 18, N-(4-((4-ethylpiperazin-1-yl)methyl)-3-(trifluoromethyl)phenyl)-4-hydroxy-7-((2-methyl-1H-pyrrolo[2,3-b]pyridin-4-yl)oxy)-3,4-dihydroisoquinoline-2(1H)-carboxamide] |

same assay, conditions: 1 mM ATP, Table 20

| pIC50 | SMILES |
| --- | --- |
| > 6.30 | CN1CCN(Cc2ccc(NC(=O)N3CCc4ccc(Oc5c(F)cnc6[nH]c(-c7cnn(C)c7)cc56)cc4C3)cc2C(F)(F)F)CC1 [compound 19, 7-[[5-Fluoro-2-(1-methylpyrazol-4-yl)-1H-pyrrolo[2,3-b]pyridin-4-yl]oxy]-N-[4-[(4-methylpiperazin-1-yl)methyl]-3-(trifluoromethyl)phenyl]-3,4-dihydro-1H-isoquinoline-2-carboxamide] |
| > 6.30 | CC[C@H]1CN(C(=O)Nc2ccc(CN3CCN(C)CC3)c(C(F)(F)F)c2)Cc2cc(Oc3ccnc4[nH]c(C#N)cc34)cnc21 [compound 20, (8S)-3-[(2-Cyano-1H-pyrrolo[2,3-b]pyridin-4-yl)oxy]-8-ethyl-N-[4-[(4-methylpiperazin-1-yl)methyl]-3-(trifluoromethyl)phenyl]-7,8-dihydro-5H-1,6-naphthyridine-6-carboxamide] |
| > 6.30 | CC[C@H]1CN(C(=O)Nc2ccc(CN3CCN(C)CC3)c(C(F)(F)F)c2)Cc2cc(Oc3ccnc4[nH]c(C(=O)N(C)C)cc34)cnc21 [compound 21, (8S)-3-[[2-(dimethylcarbamoyl)-1H-pyrrolo[2,3-b]pyridin-4-yl]oxy]-8-ethyl-N-[4-[(4-methylpiperazin-1-yl)methyl]-3-(trifluoromethyl)phenyl]-7,8-dihydro-5H-1,6-naphthyridine-6-carboxamide] |
| > 6.30 | CN1CCN(Cc2ccc(NC(=O)N3CCc4ccc(Nc5c(F)cnc6[nH]c(-c7cnn(C)c7)cc56)cc4C3)cc2C(F)(F)F)CC1 [compound 22, 7-[[5-Fluoro-2-(1-methylpyrazol-4-yl)-1H-pyrrolo[2,3-b]pyridin-4-yl]amino]-N-[4-[(4-methylpiperazin-1-yl)methyl]-3-(trifluoromethyl)phenyl]-3,4-dihydro-1H-isoquinoline-2-carboxamide] |
| > 6.30 | CCN1CCN(Cc2ccc(NC(=O)C3CCc4ncc(Oc5ccnc6[nH]ccc56)cc4C3)cc2C(F)(F)F)CC1 (centres unmarked) [compound 24, 3-((1H-Pyrrolo[2,3-b]pyridin-4-yl)oxy)-N-(4-((4-ethylpiperazin-1-yl)methyl)-3-(trifluoromethyl)phenyl)-5,6,7,8-tetrahydroquinoline-6-carboxamide] |
